Laboratory results: patent US20150125889A1, “IN VITRO DETECTION OF MICROORGANISMS WITH AZOREDUCTASE ACTIVITY” (BIOMÉRIEUX, priority 2012, published 2015)

How the values were obtained:
Experiment in all cases: Reduction of azo substrates over 24 hours at 35° C., microtitration plate (Example 1)
Format in all cases: cell-based
Candida albicans = test system: Candida albicans; set-up: key to RED (substrate reduced or not): RED indicates whether the substrate is reduced (Y) or not (N); RED indicates whether the substrate is reduced (Y) or not (N); key to Co (growth, absorbance at 660 nm) / Decol (substrate decolourized, decrease in absorbance) / Fluo (fluorescence multiplied by 2 relative to substrate-free control): The symbol “+” means good growth/decolourization/significant increase in fluorescence; The symbol “+/−” means difficult growth; The symbol “−” means that there is no growth/decolourization/significant increase in fluorescence; details: substrate 35 mg/l
Outline: (§1)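 Readout: A660 for growth; substrate-specific absorbance/fluorescence for azo reduction. Trypcase soya broth, 35 mg/l substrate, 0.5 McFarland inoculum, 35° C., 24 h. Reduced = decolourization and/or fluorescence ≥2× substrate-free control.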

Pseudomonas aeruginosa = test system: Pseudomonas aeruginosa; set-up: key to RED (substrate reduced or not): RED indicates whether the substrate is reduced (Y) or not (N); RED indicates whether the substrate is reduced (Y) or not (N); key to Co (growth, absorbance at 660 nm) / Decol (substrate decolourized, decrease in absorbance) / Fluo (fluorescence multiplied by 2 relative to substrate-free control): The symbol “+” means good growth/decolourization/significant increase in fluorescence; The symbol “+/−” means difficult growth; The symbol “−” means that there is no growth/decolourization/significant increase in fluorescence; details: P. aeruginosa, substrate 35 mg/l
Outline: as §1

Cronobacter muytjensii = test system: Cronobacter muytjensii; set-up: key to RED (substrate reduced or not): RED indicates whether the substrate is reduced (Y) or not (N); RED indicates whether the substrate is reduced (Y) or not (N); key to Co (growth, absorbance at 660 nm) / Decol (substrate decolourized, decrease in absorbance) / Fluo (fluorescence multiplied by 2 relative to substrate-free control): The symbol “+” means good growth/decolourization/significant increase in fluorescence; The symbol “+/−” means difficult growth; The symbol “−” means that there is no growth/decolourization/significant increase in fluorescence; details: E. muytjensii, substrate 35 mg/l
Outline: as §1

Staphylococcus aureus = test system: Staphylococcus aureus; set-up: key to RED (substrate reduced or not): RED indicates whether the substrate is reduced (Y) or not (N); RED indicates whether the substrate is reduced (Y) or not (N); key to Co (growth, absorbance at 660 nm) / Decol (substrate decolourized, decrease in absorbance) / Fluo (fluorescence multiplied by 2 relative to substrate-free control): The symbol “+” means good growth/decolourization/significant increase in fluorescence; The symbol “+/−” means difficult growth; The symbol “−” means that there is no growth/decolourization/significant increase in fluorescence; details: S. aureus, substrate 35 mg/l
Outline: as §1

Kocuria rosea = test system: Kocuria rosea; set-up: key to RED (substrate reduced or not): RED indicates whether the substrate is reduced (Y) or not (N); RED indicates whether the substrate is reduced (Y) or not (N); key to Co (growth, absorbance at 660 nm) / Decol (substrate decolourized, decrease in absorbance) / Fluo (fluorescence multiplied by 2 relative to substrate-free control): The symbol “+” means good growth/decolourization/significant increase in fluorescence; The symbol “+/−” means difficult growth; The symbol “−” means that there is no growth/decolourization/significant increase in fluorescence; details: K. rosea, substrate 35 mg/l
Outline: as §1

Enterococcus faecalis = test system: Enterococcus faecalis; set-up: key to RED (substrate reduced or not): RED indicates whether the substrate is reduced (Y) or not (N); RED indicates whether the substrate is reduced (Y) or not (N); key to Decol (substrate decolourized, decrease in absorbance) / Fluo (fluorescence multiplied by 2 relative to substrate-free control) / Co (growth, absorbance at 660 nm): The symbol “+” means good growth/decolourization/significant increase in fluorescence; The symbol “+/−” means difficult growth; The symbol “−” means that there is no growth/decolourization/significant increase in fluorescence; details: E. faecalis, substrate 35 mg/l
Outline: as §1

Acinetobacter baumanii = test system: Acinetobacter baumanii; set-up: key to RED (substrate reduced or not): RED indicates whether the substrate is reduced (Y) or not (N); RED indicates whether the substrate is reduced (Y) or not (N); key to Decol (substrate decolourized, decrease in absorbance) / Fluo (fluorescence multiplied by 2 relative to substrate-free control) / Co (growth, absorbance at 660 nm): The symbol “+” means good growth/decolourization/significant increase in fluorescence; The symbol “+/−” means difficult growth; The symbol “−” means that there is no growth/decolourization/significant increase in fluorescence; details: A. baumannii, substrate 35 mg/l
Outline: as §1

Compound | Co (growth, absorbance at 660 nm) (Candida albicans) | Decol (substrate decolourized, decrease in absorbance) (Candida albicans) | Fluo (fluorescence multiplied by 2 relative to substrate-free control) (Candida albicans) | RED (substrate reduced or not) (Candida albicans) | Co (growth, absorbance at 660 nm) (Pseudomonas aeruginosa) | Decol (substrate decolourized, decrease in absorbance) (Pseudomonas aeruginosa) | Fluo (fluorescence multiplied by 2 relative to substrate-free control) (Pseudomonas aeruginosa) | RED (substrate reduced or not) (Pseudomonas aeruginosa) | Co (growth, absorbance at 660 nm) (Cronobacter muytjensii) | Decol (substrate decolourized, decrease in absorbance) (Cronobacter muytjensii) | Fluo (fluorescence multiplied by 2 relative to substrate-free control) (Cronobacter muytjensii) | RED (substrate reduced or not) (Cronobacter muytjensii) | Co (growth, absorbance at 660 nm) (Staphylococcus aureus) | Decol (substrate decolourized, decrease in absorbance) (Staphylococcus aureus) | Fluo (fluorescence multiplied by 2 relative to substrate-free control) (Staphylococcus aureus) | RED (substrate reduced or not) (Staphylococcus aureus) | Co (growth, absorbance at 660 nm) (Kocuria rosea) | Decol (substrate decolourized, decrease in absorbance) (Kocuria rosea) | Fluo (fluorescence multiplied by 2 relative to substrate-free control) (Kocuria rosea) | Co (growth, absorbance at 660 nm) (Enterococcus faecalis) | other results
O=C(O)c1cc(/N=N/c2ccc(-c3nc4ccccc4s3)cc2)ccc1O [BF45, 2-Phenyl-benzothiazole-4′-azo-4″- hydroxybenzene-3″-carboxylic acid] | + | − | − | N | + | − | − | N | + | − | − | N | + | + | + | Y | + | − | + | + | RED (substrate reduced or not) (Kocuria rosea): Y; Decol (substrate decolourized, decrease in absorbance) (Enterococcus faecalis): +; Fluo (fluorescence multiplied by 2 relative to substrate-free control) (Enterococcus faecalis): +; RED (substrate reduced or not) (Enterococcus faecalis): Y; Co (growth, absorbance at 660 nm) (Acinetobacter baumanii): +; Decol (substrate decolourized, decrease in absorbance) (Acinetobacter baumanii): −; Fluo (fluorescence multiplied by 2 relative to substrate-free control) (Acinetobacter baumanii): +; RED (substrate reduced or not) (Acinetobacter baumanii): Y
CN(C)c1ccc(N=Nc2ccc(S(=O)(=O)[O-])cc2)cc1.[Na+] [Methyl orange] | + | − | − | N | + | − | − | N | + | − | − | N | + | − | − | N | − | − | − | + | Decol (substrate decolourized, decrease in absorbance) (Enterococcus faecalis): +; Fluo (fluorescence multiplied by 2 relative to substrate-free control) (Enterococcus faecalis): +; RED (substrate reduced or not) (Enterococcus faecalis): Y; Co (growth, absorbance at 660 nm) (Acinetobacter baumanii): +; Decol (substrate decolourized, decrease in absorbance) (Acinetobacter baumanii): −; Fluo (fluorescence multiplied by 2 relative to substrate-free control) (Acinetobacter baumanii): −; RED (substrate reduced or not) (Acinetobacter baumanii): N
CN(C)c1ccc(/N=N/c2ccccc2C(=O)O)cc1 [Methyl red] | + | + | + | Y | + | +/− | + | Y | + | + | + | Y | + | + | + | Y | +/− | +/− | + | + | RED (substrate reduced or not) (Kocuria rosea): Y; Decol (substrate decolourized, decrease in absorbance) (Enterococcus faecalis): +; Fluo (fluorescence multiplied by 2 relative to substrate-free control) (Enterococcus faecalis): +; RED (substrate reduced or not) (Enterococcus faecalis): Y; Co (growth, absorbance at 660 nm) (Acinetobacter baumanii): +; Decol (substrate decolourized, decrease in absorbance) (Acinetobacter baumanii): +; Fluo (fluorescence multiplied by 2 relative to substrate-free control) (Acinetobacter baumanii): +; RED (substrate reduced or not) (Acinetobacter baumanii): Y
O=S(=O)([O-])c1ccc(N=Nc2c(O)ccc3ccccc23)cc1.[Na+] [Orange II] | + | − | − | N | + | − | − | N | + | − | − | N | + | − | − | N | − | − | − | + | Decol (substrate decolourized, decrease in absorbance) (Enterococcus faecalis): +; Fluo (fluorescence multiplied by 2 relative to substrate-free control) (Enterococcus faecalis): +; RED (substrate reduced or not) (Enterococcus faecalis): Y; Co (growth, absorbance at 660 nm) (Acinetobacter baumanii): +; Decol (substrate decolourized, decrease in absorbance) (Acinetobacter baumanii): −; Fluo (fluorescence multiplied by 2 relative to substrate-free control) (Acinetobacter baumanii): −; RED (substrate reduced or not) (Acinetobacter baumanii): N
O=C([O-])C1=NN(c2ccc(S(=O)(=O)[O-])cc2)C(=O)C1/N=N/c1ccc(S(=O)(=O)[O-])cc1.[Na+].[Na+].[Na+] (centres unmarked) [Tartrazine] | + | − | − | N | + | − | − | N | + | − | − | N | + | − | − | N | − | − | − | + | Decol (substrate decolourized, decrease in absorbance) (Enterococcus faecalis): +; Fluo (fluorescence multiplied by 2 relative to substrate-free control) (Enterococcus faecalis): +/−; RED (substrate reduced or not) (Enterococcus faecalis): Y; Co (growth, absorbance at 660 nm) (Acinetobacter baumanii): +; Decol (substrate decolourized, decrease in absorbance) (Acinetobacter baumanii): −; Fluo (fluorescence multiplied by 2 relative to substrate-free control) (Acinetobacter baumanii): −; RED (substrate reduced or not) (Acinetobacter baumanii): N
